Measurements: ChEMBL document CHEMBL1148944, “Iridoid glucosides and p-coumaroyl iridoids from Viburnum luzonicum and their cytotoxicity” (J Nat Prod, 2004)

experiment: Cytotoxicity against human HeLaS3 cells by WST1 assay; type: functional, cell-based; conditions: HeLa S3

Row | Compound | IC50 [µM]
1 | CC(C)CC(=O)O[C@@H]1OC=C(CO)[C@H]2C[C@H](OC(=O)/C=C\c3ccc(O)cc3)[C@](O)(CO)[C@@H]12 [LUZONOID B] | 3.11
2 | COC(=O)C1=CO[C@@H](O[C@@H]2O[C@H](CO)[C@@H](O)[C@H](O)[C@H]2O)[C@@H]2[C@@H](COC(=O)/C=C\c3ccc(O)cc3)CC[C@H]12 [LUZONOSIDE D] | 100
3 | CC(C)CC(=O)O[C@@H]1OC=C(CO[C@@H]2O[C@H](CO)[C@@H](O)[C@H](O)[C@H]2O)[C@H]2C[C@H](OC(=O)/C=C\c3ccc(O)cc3)[C@](O)(CO)[C@@H]12 [LUZONOSIDE B] | 4.67
4 | COC(=O)C1=CO[C@@H](O[C@@H]2O[C@H](CO)[C@@H](O)[C@H](O)[C@H]2O)[C@@H]2[C@@H](COC(=O)/C=C/c3ccc(O)cc3)CC[C@H]12 [LUZONOSIDE C] | 100
5 | CCC(C)CC(=O)O[C@@H]1OC=C(CO)[C@H]2C[C@H](OC(=O)/C=C/c3ccc(O)cc3)[C@](O)(CO)[C@@H]12 (stereo not given in full) [1-O-DEISOVAEROYL-1-O-3-METHYLVALEROYL-LUZONOID A] | 7.4
6 | CC(C)CC(=O)O[C@@H]1OC=C(CO)[C@H]2C[C@H](O)[C@](O)(COC(=O)/C=C\c3ccc(O)cc3)[C@@H]12 [LUZONOID D] | 4.56
7 | CC(C)CC(=O)O[C@@H]1OC=C(CO)[C@H]2C[C@H](OC(=O)/C=C/c3ccc(O)cc3)[C@](O)(CO)[C@@H]12 [LUZONOID A] | 2.89
8 | O=c1[nH]cc(F)c(=O)[nH]1 [FLUOROURACIL] | 5.4
9 | CC(C)CC(=O)O[C@@H]1OC=C(CO[C@@H]2O[C@H](CO)[C@@H](O)[C@H](O)[C@H]2O)[C@H]2C[C@H](OC(=O)/C=C/c3ccc(O)cc3)[C@](O)(CO)[C@@H]12 [LUZONOSIDE A] | 3.39
10 | CC(C)CC(=O)O[C@@H]1OC=C(CO)[C@H]2C[C@H](O)[C@](O)(COC(=O)/C=C/c3ccc(O)cc3)[C@@H]12 [LUZONOID C] | 3.57
